Experiments:
[1] = tested on: cellular levels of OAADPr in HEK-293 cells; assay: Detection of cellular OAADPr by HPLC fractionation and MALDI mass spectrometry; format: cell-based; details: puromycin-treated vs mock-treated HEK-293 cells
Method: Shown is the development of whole cell currents over time in TRPM2-expressing HEK-293 cells. Bath solution was standard ringer's, and pipette solution was Cs-based and included 10 mM EGTA to buffer intracellular Ca^2+ to 10 nM. The patch pipette contained various concentrations of (FIG. 1a) ADPr, (FIG. 1b) OAADPr (FIG. 1c) OAADPr and puromycin as indicated in the figure. FIG. 1d.) Cytoplasmic OAADPr esterase activity is inhibited by puromycin. 200 μM O-[^3H]AADPr and 0-100 μM puromycin were added to cytoplasmic HEK-293 extract for 30 min. Percent hydrolysis of O-[^3H]AADPr to [^3H]acetate was measured as described hereinbelow. FIG. 1e.) Nuclear OAADPr acetyltransferase activity is not inhibited by puromycin. HEK-293 nuclear extract was incubated with 200 μM O-[^3H]AADPr in the presence or absence of 100 μM puromycin for 60 min. The reactions were quenched and resolved by HPLC. The radioactivity in collected fractions was determined by liquid scintillation counting. FIGS. 1f-g.) In vivo detection of OAADPr. Mass spectrum of HEK-293 generated OAADPr (peak m/z of 602.0894; the theoretical m/z for OAADPr is 602.0895) after puromycin treatment, with authentic [^13C]-OAADPr (peak m/z of 603.0851 and isotopic distribution of 604.0878 and 605.0928) as a standard. Peak 599.3691 is from the matrix. […]

CRI-G1 cells = assay: Cell viability assay (calcein fluorescence), CRI-G1 cells; format: cell-based, rat; details: 0-40 μM puromycin, 16 h
Method: FIG. 4 a) OAADPr gates the endogenous TRPM2 channel in CRI-G1 cells. Left panel: Evolution of currents in CRI-G1 cells in the absence (grey squares) or presence (black circles) of OAADPr (120-250 μM). Shown are average leak subtracted currents from n=3 cells for each condition. Right panel: Representative leak subtracted whole cell I/V curves for peak currents observed in the absence (grey line) and presence (black line) of OAADPr. For the above measurements, CRI-G1 cells were maintained in the whole cell patch clamp configuration as previously described for HEK-293 cells (44). b) Puromycin leads to cell death in CRI-G1 cells. CRI-G1 cells were treated with 0-40 μM puromycin for 16 h. Cell viability was assessed by measuring fluorescence of calcein in live cells. Data obtained from 4 independent experiments were plotted as a percent change in fluorescence compared to those of untreated cells set at a 100%. Error bars indicate the standard deviation from the mean. (Inset) Nicotinamide rescues puromycin-induced death in CRI-G1 cells. […] Cell viability was assessed 16 h later as described above. […] Calcein is retained in living, but not dead cells, where it undergoes catalytic conversion into a fluorescent compound Fluorescence in each well was measured in a microplate reader using excitation and emission filters at 485/530 nm, respectively.

pancreatic cells = details: not the result of inhibition of protein synthesis (ref. 47); cited from earlier work
HEK-293 cells = assay: Cell viability assay (calcein fluorescence), parental HEK-293 cells; format: cell-based; details: parental HEK-293, 5-50 μM, 16 h
Method: Shown are HEK-293 cells (closed diamond) and HEK-293 cells stably transfected with a tet-controlled TRPM2 construct in the presence (open squares) or absence of (open diamonds) tetracycline. Cells incubated in the presence of 0-50 μM puromycin for 16 h were assayed for viability by measuring fluorescence of calcein in live cells. b.) Removal of calcium rescues cells from puromycin induced cell death. TRPM2-expressing HEK-293 cells were grown in complete DMEM media and 1 μg/ml tetracycline until 80-90% confluent. One set of cells were re-fed with the same complete media (closed diamonds) and the other set of cells were rinsed with PBS and fed with modified media containing 1 μg/ml tetracycline, 5 mM EGTA and without calcium chloride (open squares). […] HEK-293 (close diamond) and TRPM2 expressing HEK-293 cells in the absence (open diamond) or presence of (closed square) tetracycline were exposed to 0-10 μg/ml cycloheximide for 16 h. Cell viability was determined as described in (a).
HEK-293, tet-inducible HEK-293, and CRI-G1 cells were seeded into 6 well plates at a density of 500,000 cells per well. […] Calcein is retained in living, but not dead cells, where it undergoes catalytic conversion into a fluorescent compound Fluorescence in each well was measured in a microplate reader using excitation and emission filters at 485/530 nm, respectively.

## COc1ccc(C[C@H](N)C(=O)N[C@H]2[C@@H](O)[C@H](n3cnc4c(N(C)C)ncnc43)O[C@@H]2CO)cc1 [puromycin]
[1]
  cellular levels of OAADPr after treatment: significantly detectable levels
CRI-G1 cells
  cell death of CRI-G1 cells: dose-dependent death
Pancreatic cells
  effect of puromycin treatment in whole rat: specific pancreatic cell death
HEK-293 cells
  cell death following puromycin treatment: no significant cell death

Reference: patent publication US8440638B2, “Compositions and methods for modulating calcium flux, glucose homeostasis and apoptosis” (Wisconsin Alumni Research Foundation, priority 2004, dated 2013)
